Data on 15 compounds can be found in patent US6683095B2, “CDK inhibitors having 3-hydroxychromen-4-one structure” (LG Life Sciences Ltd., priority 2000, dated 2004).

Data set [1] has as its target T1, CDK2/cyclin A (Homo sapiens, UniProt P24941).
T1 construct: His; made in house; host or cells: insect cell (baculovirus co-infection)
The data set can be described thus: Inhibitory activity against CDK2 (CDK2/cyclin A kinase assay, GST-Rb substrate, 32P-ATP). The class given is biochemical. Particulars: 100 μM ATP, 30° C., 30 minutes. The method, then:
The inhibitory activity against CDK2 was measured by referring to Kitagawa, M. et al., Oncogene 9; 2549, 1994 and that against CDK4 was measured by referring to Carlson, B. A. et al., Cancer Research 56; 2473, 1996.
The part of amino acid positions 780 to 928 of C-terminus of human Rb protein was isolated, N-terminus thereof was labelled with GST protein, large amount thereof was expressed in bacteria and purified to be used as the substrate for the enzyme.
(§1) The activities of CDK2/cyclin A and CDK4/cyclin D1 were determined as follows. About 100 ng of enzyme was reacted in a total 100 μl of 20 mM Tris(pH 8.0), 100 mM NaCl, 10 mM MgCl2 buffer solution containing 20 μg of GST-Rb protein, 100 μM of ATP and 5 μCi of p^32-γ-ATP at 30° C. for 30 minutes. Then, EDTA was added to a concentration of 20 mM to stop the enzyme reaction. Subsequently, 30 μl of 50% glutathione bead (purchased from Pharmacia) was added to attach GST-Rb to the bead, which was washed three times with 20 mM Tris(pH 8.0), 100 mM NaCl, 10 mM EDTA solution, and then scintillation counting was carried out. To analyze the inhibitory activity of the compound, the inhibitor having a proper concentration was added to the enzyme reaction solution, and then the enzyme activity was measured according to the above method.
The inhibitory activity against CDK2 and CDK4 of the compound of formula (1) according to the present invention was represented as IC50 value (see the following Table 1).

The target in data set [2] is T2, CDK4/cyclin D1 (Homo sapiens, UniProt P11802).
T2 construct: GST; made in house; host or cells: insect cell
The data set is described as follows: Inhibitory activity against CDK4 (CDK4/cyclin D1 kinase assay, GST-Rb substrate, 32P-ATP). The format is biochemical. Particulars: 100 μM ATP, 30° C., 30 minutes. The method, then:
as §1

Data set [3] is described as follows: Acute oral toxicity test. The note with it: mouse, in vivo; oral administration, ICR male, observed 7 days, Litchfield-Wilcoxon method. The method, then: To determine the acute oral toxicities of the test compounds, solutions containing a compound in different concentrations from each other were administered orally to ICR male with a dose of 10 ml/kg body weight. After oral administration, lethality and symptoms for 7 days were observed, and LD50 (mg/kg) was calculated according to Litchfield-Wilcoxon method.

The IC50 is the midpoint of a concentration-inhibition curve. The LD50 is the dose at which mortality reaches 50%.

T2 sequence (P11802 whole entry): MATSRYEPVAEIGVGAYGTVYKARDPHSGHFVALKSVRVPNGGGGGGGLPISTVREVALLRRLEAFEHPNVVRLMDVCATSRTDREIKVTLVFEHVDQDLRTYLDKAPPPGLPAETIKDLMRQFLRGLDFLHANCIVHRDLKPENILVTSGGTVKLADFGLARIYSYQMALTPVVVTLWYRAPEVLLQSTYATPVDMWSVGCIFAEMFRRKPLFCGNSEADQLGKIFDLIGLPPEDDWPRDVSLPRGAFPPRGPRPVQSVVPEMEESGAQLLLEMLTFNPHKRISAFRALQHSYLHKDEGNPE
T2 sequence (P24385 whole entry partner): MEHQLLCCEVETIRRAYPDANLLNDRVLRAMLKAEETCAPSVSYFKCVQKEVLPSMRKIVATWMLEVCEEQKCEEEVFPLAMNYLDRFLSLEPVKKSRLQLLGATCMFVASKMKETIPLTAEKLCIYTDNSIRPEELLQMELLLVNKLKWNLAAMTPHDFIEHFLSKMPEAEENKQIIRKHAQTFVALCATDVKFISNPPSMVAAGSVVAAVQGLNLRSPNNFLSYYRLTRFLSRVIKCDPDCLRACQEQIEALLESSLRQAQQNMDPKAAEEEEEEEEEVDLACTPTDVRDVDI

As for `Cc1cc(N2CCCS2(=O)=O)c2oc(-c3ccc(O)cc3)c(O)c(=O)c2c1` [Compound 15, 2-[3-hydroxy-2-(4-hydroxyphenyl)-6-methyl-4-oxo-4H-chromen-8-yl]-1λ^6-isothiazolidin-1,1-dione], the IC50 worked out at 0.25 µM in data set [1] and 0.55 µM in data set [2]. Also, the LD50 at 7 days in data set [3] was greater than 3000 mg/kg.

Take `Cc1cc(N2CCCS2(=O)=O)c2oc(-c3ccc(O)c(Cl)c3)c(O)c(=O)c2c1` [Compound 17, 2-[2-(3-chloro-4-hydroxyphenyl)-3-hydroxy-6-methyl-4-oxo-4H-chromen-8-yl]-1λ^6-isothiazolidin-1,1-dione]: the IC50 in data set [1] was 0.185 µM; in data set [2], 0.195 µM. Besides, in data set [3], the LD50 at 7 days is greater than 3000 mg/kg.

With `CN(CCO)c1cc(N2CCCS2(=O)=O)c2oc(-c3ccc(O)cc3)c(O)c(=O)c2c1` [Compound 33, 2-{3-hydroxy-6-[(2-hydroxyethyl)(methyl)amino]-2-(4-hydroxyphenyl)-4-oxo-4H-chromen-8-yl}-1λ^6-isothiazolidin-1,1-dione], the values for the concentration for half-maximal inhibition (IC50) in data set [1] and in data set [2] were 0.6 µM and 0.9 µM, respectively.

For `CC(=O)Nc1cc(N2CCCS2(=O)=O)c2oc(-c3ccc(O)c(Cl)c3)c(O)c(=O)c2c1` [Compound 34, N-[2-(3-chloro-4-hydroxyphenyl)-8-(1,1dioxo-1λ^6-isothiazolidin-2-yl)-3-hydroxy-4-oxo-4H-chromen-6-yl]acetamide], the IC50 in data set [1] stood at 1.3 µM; in data set [2], 1.8 µM.

As for `Nc1cc(N2CCCS2(=O)=O)c2oc(-c3ccc(O)c(Cl)c3)c(O)c(=O)c2c1` [Compound 35, 2-[6-amino-2-(3-chloro-4-hydroxyphenyl)-3-hydroxy-4-oxo-4H-chromen-8-yl]-1λ^6-isothiazolidin-1,1-dione], the IC50 in data set [1] is 0.07 µM; in data set [2] it was 0.18 µM.

In the case of `CN(C)c1cc(N2CCCS2(=O)=O)c2oc(-c3ccc(O)c(Cl)c3)c(O)c(=O)c2c1` [Compound 36, 2-[2-(3-chloro-4-hydroxyphenyl)-6-(dimethylamino)-3-hydroxy-4-oxo-4H-chromen-8-yl]-1λ^6-isothiazolidin-1,1-dione], the IC50 in data set [1] worked out at 0.5 µM; in data set [2], 0.6 µM. In addition, the LD50 at 7 days in data set [3] was greater than 3000 mg/kg.

On to `CNc1cc(N2CCCS2(=O)=O)c2oc(-c3ccc(O)c(Cl)c3)c(O)c(=O)c2c1` [Compound 37, 2-[2-(3-chloro-4-hydroxyphenyl)-6-(methylamino)-3-hydroxy-4-oxo-4H-chromen-8-yl]-1λ^6-isothiazolidin-1,1-dione], for which the figures for the IC50 in data set [1] and in data set [2] were 0.2 µM and 0.18 µM, respectively. For the same compound, the LD50 at 7 days in data set [3] is greater than 3000 mg/kg.

As for `Cc1cc(C2CCN(C)CC2)c2oc(-c3ccc(O)c(Cl)c3)c(O)c(=O)c2c1` [Compound 38, 2-(3-chloro-4-hydroxyphenyl)-3-hydroxy-6-methyl-8-(1-methyl-4-piperidinyl)-4H-chromen-4-one], the IC50 was 0.5 µM in data set [1] and 0.12 µM in data set [2]. Also, the LD50 at 7 days in data set [3] was greater than 3000 mg/kg.

Regarding `Cc1cc(-c2ccncc2)c2oc(-c3ccc(O)c(Cl)c3)c(O)c(=O)c2c1` [Compound 39, 2-(3-chloro-4-hydroxyphenyl)-3-hydroxy-6-methyl-8-(4-pyridinyl)-4H-chromen-4-one], the IC50 in data set [1] came to 0.13 µM; in data set [2] it was 0.28 µM.

Take `Cc1cc(-c2cc[n+](C)cc2)c2oc(-c3ccc(O)c(Cl)c3)c(O)c(=O)c2c1` [Compound 40, 4-[2-(3-chloro-4-hydroxyphenyl)-3-hydroxy-6-methyl-4-oxo-4H-chromen-8-yl]-1-methylpyridinium bromide]: the IC50 in data set [1] stood at 0.7 µM; in data set [2], 0.31 µM. In addition, the LD50 at 7 days in data set [3] was greater than 3000 mg/kg.

On to `Cc1cc(C2CCN(C)CC2)c2oc(-c3ccc(O)cc3)c(O)c(=O)c2c1` [Compound 41, 2-(4-hydroxyphenyl)-3-hydroxy-6-methyl-8-(1-methyl-4-piperidinyl)-4H-chromen-4-one], for which the IC50 was found to be 0.56 µM in data set [1] and 0.15 µM in data set [2].

Turning to `Cc1cc(C2CCN(C)CC2)c2oc(-c3ccc(O)c(C)c3)c(O)c(=O)c2c1` [Compound 42, 3-hydroxy-2-(4-hydroxy-3-methylphenyl)-6-methyl-8-(1-methyl-4-piperidinyl)-4H-chromen-4-one], the IC50 in data set [1] came to 0.178 µM; in data set [2], 0.65 µM.

For `Cc1cc(C2CCN(C)CC2)c2oc(-c3ccc(O)c(C(F)(F)F)c3)c(O)c(=O)c2c1` [Compound 43, 3-hydroxy-2-(4-hydroxy-3-trifluoromethylphenyl)-6-methyl-8-(1-methyl-4-piperidinyl)-4H-chromen-4-one], the IC50 is 6.3 µM in data set [1] and less than 1 µM in data set [2].

In the case of `Cc1cc(C2CCN(CCO)CC2)c2oc(-c3ccc(O)c(Cl)c3)c(O)c(=O)c2c1` [Compound 44, 2-(3-chloro-4-hydroxyphenyl)-3-hydroxy-8-[1-(2-hydroxyethyl)-4-piperidinyl]-6-methyl-4H-chromen-4-one], the IC50 in data set [1] and in data set [2] was less than 1 µM each time.

For the compound `Cc1cc(C2CCN(CCN)CC2)c2oc(-c3ccc(O)c(Cl)c3)c(O)c(=O)c2c1` [Compound 45, 8-[1-(2-aminoethyl)-4-piperidinyl]-2-(3-chloro-4-hydroxyphenyl)-3-hydroxy-6-methyl-4H-chromen-4-one], the IC50 in data set [1] and in data set [2] was less than 1 µM throughout.
